Laboratory results as given in PMC7704979, “Effect of the versatile bifunctional chelator AAZTA^5 on the radiometal labelling properties and the in vitro performance of a gastrin releasing peptide receptor antagonist” (EJNMMI Radiopharmacy and Chemistry, 2020).

How the values were obtained:
GRPr = molecular target: T1, GRPr (Homo sapiens, UniProt P30550); experiment: Saturation binding studies on intact PC3 cells; conditions: for Bmax (concentration of the radiotracer required to saturate the receptors): intact PC3 cells, 4 °C, 120 min, normalized for 1 × 10^6 cells per well
T1 construct: For receptor saturation analysis, PC3 cells were seeded at a density of 0.8–1 million cells per well; endogenous in cells; host or cells: PC3 (human prostate adenocarcinoma cell line), intact cells
T1 sequence (P30550 whole entry): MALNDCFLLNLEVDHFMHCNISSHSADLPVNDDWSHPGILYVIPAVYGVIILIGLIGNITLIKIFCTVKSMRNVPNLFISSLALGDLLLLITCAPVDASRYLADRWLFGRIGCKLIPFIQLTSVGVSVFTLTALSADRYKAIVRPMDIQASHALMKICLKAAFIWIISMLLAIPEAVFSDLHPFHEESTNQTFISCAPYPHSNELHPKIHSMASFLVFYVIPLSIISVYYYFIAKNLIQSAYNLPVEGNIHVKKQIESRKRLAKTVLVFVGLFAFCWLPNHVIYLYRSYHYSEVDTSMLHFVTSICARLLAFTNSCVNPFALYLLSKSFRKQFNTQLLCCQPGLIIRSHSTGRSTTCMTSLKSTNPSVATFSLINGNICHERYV
Experimental: For receptor saturation analysis, PC3 cells were seeded at a density of 0.8–1 million cells per well in 6-well plates and incubated overnight with medium (DMEM: F12 (1:1) containing 1% FBS, 100 U/mL penicillin and 100 μg/mL streptomycin). The next day, the medium was removed, the cells washed and incubated for 1 h at 37 °C with fresh medium. […] After the addition of the radioligands, the cells were incubated for 120 min at 4 °C. Non-specific binding was determined in the presence of Tyr^4-Bombesin at a final concentration of 1 μM. Then the cells were washed twice with ice-cold PBS, followed by solubilization with 1 N NaOH and the cell-associated radioactivity was measured using a gamma-counter. Specific binding was plotted against the total molar concentration of the added radiotracer. The Kd values and the concentration of the radiotracer required to saturate the receptors (Bmax) were determined by nonlinear regression using GraphPad (Prism 8 Graph Pad Software, San Diego, CA). For all the cell studies the values are normalized for 1 × 10^6 cells per well and all data are from two independent experiments with triplicates in each experiment.

PC3 cells [1] = experiment: Internalization studies in PC3 cells; type: cell-based, human; conditions: 37 °C; for specifically internalized activity / total cell associated uptake: 6 h; for total cell associated uptake: % of applied radioactivity
Experimental: For internalization experiments, PC3 cells were seeded into 6-well plates and treated as described above. […] To determine nonspecific membrane binding and internalization, excess of Tyr^4-Bombesin (final concentration 1 μΜ) was added to selected wells. At each time point, the internalization was stopped by removing the medium and washing the cells twice with ice-cold PBS. To remove the receptor-bound radioligand, an acid wash was carried out twice with a 0.1 M glycine buffer pH 2.8 for 5 min on ice. Finally, cells were solubilized with 1 N NaOH. The radioactivity of the culture medium, the receptor-bound, and the internalized fractions were measured in a γ-counter.

PC3 cells [2] = experiment: In vitro therapy study, trypan blue exclusion viability of PC3 cells; type: cell-based, human; conditions: monotherapy (rapamycin 10 nM or ^177Lu-labelled LF1 1.85 MBq), 72 h
Experimental: For the in vitro therapy studies, PC3 cells were seeded at a density of 50,000–100,000 cells (depending on the investigating time point: 100000, 75,000 and 50,000 cells for 24, 48, 72 h respectively) in 12-well plates and incubated overnight with cultivation medium at 37 °C and 5% CO2. The next day, the medium was removed, the cells washed, and culture medium containing either rapamycin (10 nM, dissolved in dimethyl sulfoxide (DMSO)) or DMSO (control, the final concentration of DMSO in the culture medium was 0.5%) was added. The plates were incubated at 37 °C and 5% CO2 for a period of 6 h. Afterwards, the medium containing rapamycin or DMSO was removed and fresh medium was added in each well. […] The viability of the cells was accessed by the trypan blue exclusion assay after incubation at 37 °C and 5% CO2 for 24, 48 and 72 h. The experiment was performed twice in triplicate.

`CC(C)C[C@H](NC(=O)CC(O)[C@H](CC(C)C)NC(=O)[C@H](Cc1c[nH]cn1)NC(=O)CNC(=O)[C@@H](NC(=O)[C@H](C)NC(=O)[C@H](Cc1c[nH]c2ccccc12)NC(=O)[C@H](CCC(N)=O)NC(=O)[C@@H](Cc1ccccc1)NC(=O)CN1CCC(NC(=O)CCCCC2(N(CC(=O)O)CC(=O)O)CN(CC(=O)O)CCN(CC(=O)O)C2)CC1)C(C)C)C(N)=O` (some centres unmarked) [^68Ga-labelled LF1, metal not drawn] was tested, and the “Bmax (concentration of the radiotracer required to saturate the receptors)” value (“Bmax” below) (GRPr; listed as 68/natGa-LF1) was 0.4 ± 0.02 nM, the “factor of lower affinity compared to ^111/natIn-LF1” value (GRPr; ratio of Kd values, PC3 cells) was ~3 and the internalized activity (PC3 cells [1]; 4 h) was 2.8 ± 0.5%.

`CC(C)C[C@H](NC(=O)CC(O)[C@H](CC(C)C)NC(=O)[C@H](Cc1c[nH]cn1)NC(=O)CNC(=O)[C@@H](NC(=O)[C@H](C)NC(=O)[C@H](Cc1c[nH]c2ccccc12)NC(=O)[C@H](CCC(N)=O)NC(=O)[C@@H](Cc1ccccc1)NC(=O)CN1CCC(NC(=O)CCCCC2(N(CC(=O)O)CC(=O)O)CN(CC(=O)O)CCN(CC(=O)O)C2)CC1)C(C)C)C(N)=O` (some centres unmarked) [^111In-labelled LF1, metal not drawn] was tested, and the “Bmax” value (GRPr; listed as 111/natIn-LF1) was 0.6 ± 0.06 nM, the specifically internalized activity (PC3 cells [1]) was 9.2 ± 0.5% and the “total cell associated uptake” value (PC3 cells [1]) was 38.3 ± 2.5%.

`CC(C)C[C@H](NC(=O)CC(O)[C@H](CC(C)C)NC(=O)[C@H](Cc1c[nH]cn1)NC(=O)CNC(=O)[C@@H](NC(=O)[C@H](C)NC(=O)[C@H](Cc1c[nH]c2ccccc12)NC(=O)[C@H](CCC(N)=O)NC(=O)[C@@H](Cc1ccccc1)NC(=O)CN1CCC(NC(=O)CN2CCN(CC(=O)O)CCN(CC(=O)O)CCN(CC(=O)O)CC2)CC1)C(C)C)C(N)=O` (some centres unmarked) [^177/natLu-RM2, metal not drawn, reference compound] was tested, and the “Bmax” value (GRPr) was 0.8 ± 0.03 nM.

In the case of `CC(C)C[C@H](NC(=O)CC(O)[C@H](CC(C)C)NC(=O)[C@H](Cc1c[nH]cn1)NC(=O)CNC(=O)[C@@H](NC(=O)[C@H](C)NC(=O)[C@H](Cc1c[nH]c2ccccc12)NC(=O)[C@H](CCC(N)=O)NC(=O)[C@@H](Cc1ccccc1)NC(=O)CN1CCC(NC(=O)CCCCC2(N(CC(=O)O)CC(=O)O)CN(CC(=O)O)CCN(CC(=O)O)C2)CC1)C(C)C)C(N)=O` (some centres unmarked) [^177Lu-labelled LF1, metal not drawn], the “Bmax” value (GRPr; listed as 177/natLu-LF1) is reported as 0.8 ± 0.05 nM, the specifically internalized activity (PC3 cells [1]) is reported as 8.9 ± 0.8% and the “total cell associated uptake” value (PC3 cells [1]) is reported as 34.5 ± 2.3%.

In the case of `CO[C@H]1C[C@@H]2CC[C@@H](C)[C@@](O)(O2)C(=O)C(=O)N2CCCC[C@H]2C(=O)O[C@H]([C@H](C)C[C@@H]2CC[C@@H](O)[C@H](OC)C2)CC(=O)[C@H](C)/C=C(\C)[C@@H](O)[C@@H](OC)C(=O)[C@H](C)C[C@H](C)/C=C/C=C/C=C/1C` [rapamycin], the cell viability (PC3 cells [2]) is reported as “approx. 50%”.
